{"source": "paper PMC6385242", "about": "“Identification and characterization of a factor Va-binding site on human prothrombin fragment 2” (Scientific Reports, 2019)", "key": {"[1]": {"conditions": "pH 7.4"}, "[2]": {"tested_on": "F2 (prothrombin fragment 2)", "conditions": "thrombin/F2 molar ratios 1:30 to 1:10; clusters Asp68–Lys81 and Ala96–Asp108; ref (9) Koutychenko, A. (2002); cited from earlier work", "from_the_text": "page 3: plasma-derived material, indicating purity and functional integrity of the recombinant F2 protein (9). […] Not abl y, there were two upfield -shifted meth yl proton resonances, which are common for a conserved Leu residue in all kringle domains (10 –12) ."}, "[3]": {"tested_on": "FXa/PCPS, prothrombin activation", "test": "Inhibition of FXa-mediated prothrombin activation by F2-derived peptides in the absence of FVa", "format": "biochemical, human", "conditions": "300 nM prothrombin, 5 mM CaCl2, 5 μM DAPA, 50 μM PCPS, 20 nM FXa", "protocol": "Figure 3 Inhibition of FXa-mediated prothrombin activation by synthetic peptides derived from F2. […] Reactions were started by addition of 20 nM FXa. […] Reactions were initiated by addition of 0.1 nM FXa. Non-linear regression analysis was carried out to determine the IC50 and the apparent Ki was calculated using the Cheng-Prusoff equation.\n(§1) Reactions were started with addition of FXa (0.1 nM), and monitored in SpectraMax Gemini fluorescence plate reader (Molecular Devices, Sunnyvale, California) at excitation and emission wavelengths of 280 nm and 545 nm, respectively, with a 530 nm emission cut off filter in the emission beam at 25 °C. In the absence of FVa, reactions were carried out as described above; however, the reactions were started with the addition of 20 nM FXa. The Ki values were estimated using the Cheng-Prusoff equation (IC50 = [1 + ([S]/KM)] Ki) based on the IC50 values obtained by nonlinear regression of a rectangular hyperbola, whereby [S] is the prothrombin concentration and KM is the Michaelis constant of prothrombinase for prothrombin determined in a separate experiment as described previously."}, "[4]": {"biological_target": "T1, prothrombinase (FXa/FVa/PCPS), prothrombin activation (Homo sapiens, UniProt P00742+P12259)", "T1 construct": "purchased Haematologic Technologies, Inc (FXa, FVa); Enzyme Research Laboratories (prothrombin)", "T1 sequence (P12259 29-737 limits assumed)": "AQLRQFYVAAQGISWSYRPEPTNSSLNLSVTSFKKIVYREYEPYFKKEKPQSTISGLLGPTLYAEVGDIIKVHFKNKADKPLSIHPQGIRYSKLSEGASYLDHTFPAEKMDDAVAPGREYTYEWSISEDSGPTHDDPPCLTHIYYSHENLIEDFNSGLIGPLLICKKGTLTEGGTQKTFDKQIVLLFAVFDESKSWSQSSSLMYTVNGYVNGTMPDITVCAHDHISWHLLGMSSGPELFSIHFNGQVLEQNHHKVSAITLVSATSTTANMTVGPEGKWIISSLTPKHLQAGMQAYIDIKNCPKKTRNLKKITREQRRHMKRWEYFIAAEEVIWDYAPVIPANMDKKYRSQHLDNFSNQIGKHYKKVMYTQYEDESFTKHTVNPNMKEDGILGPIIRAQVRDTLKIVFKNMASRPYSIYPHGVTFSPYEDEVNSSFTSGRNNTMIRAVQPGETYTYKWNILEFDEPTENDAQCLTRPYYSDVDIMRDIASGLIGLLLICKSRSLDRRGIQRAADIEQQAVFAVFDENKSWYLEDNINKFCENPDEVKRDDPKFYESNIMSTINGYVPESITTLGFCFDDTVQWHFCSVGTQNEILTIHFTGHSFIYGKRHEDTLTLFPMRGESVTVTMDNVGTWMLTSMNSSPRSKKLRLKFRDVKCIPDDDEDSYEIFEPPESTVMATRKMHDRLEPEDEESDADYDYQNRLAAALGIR", "T1 sequence (P12259 1574-2224 limits assumed)": "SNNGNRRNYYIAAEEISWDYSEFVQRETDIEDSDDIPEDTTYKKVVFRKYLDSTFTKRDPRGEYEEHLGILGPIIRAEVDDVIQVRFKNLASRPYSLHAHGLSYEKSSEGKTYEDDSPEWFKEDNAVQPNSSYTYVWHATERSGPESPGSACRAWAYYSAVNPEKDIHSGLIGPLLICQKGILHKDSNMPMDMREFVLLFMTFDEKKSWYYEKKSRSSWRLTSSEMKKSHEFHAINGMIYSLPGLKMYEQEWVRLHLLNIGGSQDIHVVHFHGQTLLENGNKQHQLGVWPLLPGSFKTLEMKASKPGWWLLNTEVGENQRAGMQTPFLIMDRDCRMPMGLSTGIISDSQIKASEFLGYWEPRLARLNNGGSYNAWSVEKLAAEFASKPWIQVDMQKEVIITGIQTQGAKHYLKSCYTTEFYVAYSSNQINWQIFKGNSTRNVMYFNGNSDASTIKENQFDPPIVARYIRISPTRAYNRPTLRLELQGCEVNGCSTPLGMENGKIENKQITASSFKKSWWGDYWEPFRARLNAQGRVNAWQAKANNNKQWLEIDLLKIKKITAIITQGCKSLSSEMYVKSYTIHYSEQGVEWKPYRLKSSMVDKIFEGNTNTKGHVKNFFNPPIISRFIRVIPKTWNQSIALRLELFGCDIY", "T1 sequence (P00742 41-179 partner limits assumed)": "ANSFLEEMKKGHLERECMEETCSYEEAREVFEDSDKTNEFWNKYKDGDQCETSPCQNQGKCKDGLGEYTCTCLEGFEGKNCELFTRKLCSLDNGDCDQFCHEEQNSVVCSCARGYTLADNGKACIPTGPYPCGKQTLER", "T1 sequence (P00742 235-488 partner limits assumed)": "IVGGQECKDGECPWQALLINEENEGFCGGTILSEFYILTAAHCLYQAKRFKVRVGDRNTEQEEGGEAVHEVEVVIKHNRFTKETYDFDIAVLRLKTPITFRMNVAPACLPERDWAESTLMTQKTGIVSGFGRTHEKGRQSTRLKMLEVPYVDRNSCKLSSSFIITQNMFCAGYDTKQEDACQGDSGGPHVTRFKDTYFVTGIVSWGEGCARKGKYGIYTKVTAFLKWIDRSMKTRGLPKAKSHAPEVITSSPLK", "test": "Relative rate of prothrombin activation with F2-derived peptides (screen, Fig. S1)", "format": "biochemical", "conditions": "peptide 0, 50, 200, 500 μM; 300 nM prothrombin, 5 mM CaCl2, 3 μM DAPA, 50 μM PCPS, 5 nM FVa, 0.05 nM FXa", "protocol": "as §1\nFigure S1. Relative rate of prothrombin activation in the presence of each of the peptides at various concentrations. Initial rates of prothrombin activation were determined from reactions containing 300 nM prothrombin. 5 mM CaCl2, 3 μM DAPA, 50 μM PCPS, 5 nM FVa and 0.05 nM FXa. Relative rates of prothrombin activation are shown for each concentration of peptide at […]\n(1 picture or pasted object on this page, not shown here)"}, "[5]": {"tested_on": "F2 (prothrombin fragment 2)", "test": "HSQC NMR of 15N-labeled F2 with thrombin or thrombin-derived peptide", "format": "binding, human", "conditions": "F2:peptide ratio as printed", "protocol": "Uniform ^15N and ^13C/^15N isotopic labeling of F2 was achieved as described previously. Once labeled, F2 preparations prepared and pH adjusted, 25 μL of D2O was added to the protein solution to provide the NMR deuterium lock signal. For the titration experiments, small aliquots of the FVa-HC or FPRck-thrombin, both in 2 mM HEPES, 50 mM sodium phosphate buffer, pH 7, were added to samples of ^15N-labeled F2 up to a molar ratio of ~10:1. […]\nAll NMR experiments were carried out at 35° C on a Bruker Avance500 or an Avance800 spectrometer equipped with triple-resonance (^1H, ^13C, and ^15N) and three-axis gradient probes. Two-dimensional and three-dimensional NMR data collected for ^15N- and ^13C/^15N-labeled F2 included ^1H-^15N HSQC, HNCO, HN(CA)CO, HNCA, HN(CO)CA, CBCA(CO)NH and HNCACB[57]–[59]. Water suppression was achieved using the WATERGATE method with a 3:9:19 selective pulse incorporated in all the three-dimensional pulse sequences. […]\nsynthesized a peptide corresponding to residues 91- 101 of human thrombin with two cysteine residues added to form a disulfide bond between the N- and C-terminal en ds of the p eptide (s ee Experimental Procedures). […] Potential binding of the thrombin- derived peptide with F2 was monitored by the 1H-15N HSQC spectra of 15N-labeled F2 with a F2:peptide ratio of 3:1. […]"}, "prothrombinase": {"tested_on": "prothrombinase", "conditions": "cited from earlier work", "from_the_text": "It has been widely accepted that FVa alone increases the rate of thrombin generation by 3 orders of magnitude while the membrane surface alone increases the catalytic efficiency of thrombin generation by 2 orders of magnitude, which together increases its catalytic efficiency by 5 orders of magnitude. These individual contributions of the prothrombinase components toward overall thrombin generation, however, were not observed in our experiments (Table 1). […] The 5-orders of magnitude ..."}}}
{"substance": "QDFNSAVQLVEN [F2P5]", "values": [{"measurement": "solubility", "setting": "[1]", "result": "not soluble"}]}
{"substance": "thrombin", "values": [{"measurement": "perturbed HSQC peaks of 15N-F2", "setting": "[2]", "result": "two major clusters"}]}
{"substance": "LAWASAQAKALSKH [F2P4]", "values": [{"measurement": "solubility", "setting": "[1]", "result": "not soluble"}]}
{"substance": "DGLDEDSDRAIEGR [F2P8, F2-derived peptide, prothrombin residues 258-271]", "values": [{"measurement": "inhibition of prothrombin activation in the absence of FVa", "setting": "[3]", "result": "inhibited prothrombin activation"}, {"measurement": "dose-dependent inhibition of prothrombin activation", "setting": "[4]", "result": "inhibited prothrombin activation in a dose-dependent manner"}]}
{"substance": "YVAGKPGDFGY [F2P6, F2-derived peptide, prothrombin residues 232-242]", "values": [{"measurement": "dose-dependent inhibition of prothrombin activation", "setting": "[4]", "result": "did not"}]}
{"substance": "EGSSVNLSPPLE [F2P1, F2-derived peptide, prothrombin residues 157-168]", "values": [{"measurement": "inhibition of prothrombin activation in the absence of FVa", "setting": "[3]", "result": "inhibited prothrombin activation"}, {"measurement": "dose-dependent inhibition of prothrombin activation", "setting": "[4]", "result": "inhibited prothrombin activation in a dose-dependent manner"}]}
{"substance": "CH91PRYNWRENLDR101C (disulfide) [thrombin-derived peptide, residues 91-101 in the B-chain of human thrombin with two Cys residues added, cyclic]", "values": [{"measurement": "chemical shift changes in 15N-F2 versus intact thrombin", "setting": "[5]", "result": "smaller chemical shift changes"}]}
{"substance": "FVa: factor Va, protein cofactor of prothrombinase", "values": [{"measurement": "increase in rate of thrombin generation by FVa alone", "setting": "prothrombinase", "result": "3 orders of magnitude"}]}
{"substance": "DLNYS*EEAVEEETG [F2P7, F2-derived peptide, prothrombin residues 244-257, cysteine changed to serine]", "values": [{"measurement": "dose-dependent inhibition of prothrombin activation", "setting": "[4]", "result": "did not"}]}
